These results are taken from patent US20260028353.

For series [1] the following is noted: 2 steps.

Like-named read-outs stand apart in the source and are kept apart here.

With “(9S,15S,18S)-25-benzyl-2-ethyl-18-isopropyl-3-(2-((S)-1-methoxyethyl)pyridin-3-yl)-5,5,19-trimethyl-2,4,5,6,9,10,11,12,15,16,18,19,22,23,24,25-hexadecahydro-8H-9,13-epimino-1,31-etheno-15,28-methano-26,30-(metheno)pyrrolo[3,4-a1][1]oxa[7,10,13,19]tetraazacyclohentriacontine-8,14,17,20(21H)-tetraone”, the ring closure, isolated yield (amide bond, 15-membered ring, 2 steps) turned out to be 95%.

Take “(9S,15S,18S,20aS,21aR)-2-ethyl-18-isopropyl-3-(2-((S)-1-methoxyethyl)pyridin-3-yl)-5,5,19-trimethyl-2,4,5,6,9,10,11,12,15,16,18,19,21,21a,22,23-hexadecahydro-8H-9,13-epimino-1,29-etheno-15,26-methano-24,28-(metheno)cyclopropa[o]pyrrolo[3,4-z][1]oxa[7,10,13,18]tetraazacyclotriacontine-8,14,17,20(20aH)-tetraone”: in series [1] (amide bond, 14-membered ring), the ring closure, yield after HPLC came to 1.5%.

“(9S,15S,18R,22S)-2-ethyl-18-isopropyl-3-(2-((S)-1-methoxyethyl)-5-(4-methylpiperazin-1-y)pyridin-3-yl)-5,5-dimethyl-22-phenyl-2,4,5,6,9,10,11,12,15,16,18,19,22,23-tetradecahydro-8H,21H-9,13-epimino-1,29-etheno-15,26-methano-24,28-(metheno)pyrrolo[3,4-l][1,17]dioxa[4,23,26]triazacyclononacosine-8,14,17-trione”: the ring closure, isolated yield (amide bond, 13-membered ring, 2 steps) was 6.4%.

As for “(9S,15S,18S)-3-(5-(4-cyclopropylpiperazin-1-yl)-2-((S)-1-methoxyethyl)pyridin-3-yl)-2-ethyl-18-isopropyl-5,5-dimethyl-22-phenyl-2,4,5,6,9,10,11,12,15,16,20,21,22,23-tetradecahydro-8H,14H-9,13-epimino-1,29-etheno-15,26-methano-24,28-(metheno)pyrrolo[3,4-q][1,13]dioxa[4,7,27]triazacyclononacosine-8,14,17(18H)-trione”, the ring closure, yield after HPLC in series [1] (ester bond, 18-membered ring) came out at 23%.

“tert-butyl ((9S,15S,18S,22R)-2-ethyl-18-isopropyl-3-(2-((S)-1-methoxyethyl)pyridin-3-yl)-5,5,19-trimethyl-8,14,17,20-tetraoxo-2,4,5,6,9,10,11,12,15,16,17,18,19,20,21,22,23,24-octadecahydro-8H,14H-9,13-epimino-1,31-etheno-15,28-methano-26,30-(metheno)pyrrolo[3,4-a1][1,19]dioxa[7,10,13]triazacyclohentriacontin-22-yl)carbamate” came in with a ring closure, isolated yield (amide bond, 15-membered ring, 3 steps) of 27%.

Consider “(9S,15S,18S,20aS,21aS,E)-2-ethyl-18-isopropyl-3-(2-((S)-1-methoxyethyl)pyridin-3-yl)-5,5,19-trimethyl-2,4,5,6,9,10,11,12,15,16,18,19,21,21a-tetradecahydro-8H-9,13-epimino-1,29-etheno-15,26-methano-24,28-(metheno)cyclopropa[o]pyrrolo[3,4-z][1]oxa[7,10,13]triazacyclotriacontine-8,14,17,20(20aH)-tetraone”, for which, where the note is “rcm bond, 14-membered ring, Grubbs II (0.5 eq), DCM, 12.0 mM, 40.0 °C”, the ring closure, isolated yield was found to be 11%.

“(9S,15S,18R)-3-(5-(4-cyclopropylpiperazin-1-yl)-2-((S)-1-methoxyethyl)pyridin-3-yl)-2-ethyl-18-isopropyl-5,5-dimethyl-21-phenyl-2,4,5,6,9,10,11,12,15,16,19,22-dodecahydro-8H,14H-9,13-epimino-1,29-etheno-15,26-methano-24,28-(metheno)pyrrolo[3,4-u][1,17]dioxa[4,8,11]triazacyclononacosine-8,14,17(18H)-trione” returned a ring closure, isolated yield (other bond, 13-membered ring, 2 steps) of 62%.

Where the note is “rcm bond, 14-membered ring, Grubbs II, DCM, 7.1 mM, 40.0 °C”, “(9S,15S,18S,Z)-2-ethyl-18-isopropyl-3-(2-((S)-1-methoxyethyl)pyridin-3-yl)-5,5,19-trimethyl-2,4,5,6,9,10,11,12,15,16,18,19,23,24-tetradecahydro-8H,14H-9,13-epimino-1,30-etheno-15,27-methano-25,29-(metheno)pyrrolo[3,4-z][1]oxa[7,10,13,18]tetraazacyclotriacontine-8,14,17,20-tetraone” yielded a ring closure, isolated yield of 16%.

For `CCOC(=O)[C@@H]1Cc2nc(Br)sc2CCCC(=O)N(C)[C@@H](C(C)C)C(=O)N1`, the ring closure, isolated yield (from CCOC(=O)[C@@H](N)Cc1nc(Br)sc1CCCC(=O)N(C)[C@H](C(=O)O)C(C)C, amide bond, 12-membered ring, HATU/DIEA, DMF, 209.0 mM, 0.0 °C, 3 steps) was found to be 28%.

For the compound `COC(=O)[C@@H]1Cc2cc(cc(Cl)n2)C=CCOC[C@@H](C(C)C)C(=O)N1`, under “from C=CCOC[C@H](C(=O)N[C@@H](Cc1cc(C=C)cc(Br)n1)C(=O)OC)C(C)C, rcm bond, 13-membered ring, Grubbs II (0.1 eq), DCM, 2.28 mM, 40.0 °C”, the ring closure, isolated yield amounted to 81%.

“(9S,15S,18R,21R)-3-(5-(4-cyclopropylpiperazin-1-yl)-2-((S)-1-methoxyethyl)pyridin-3-yl)-21-(2,6-dichloropyridin-4-yl)-2-ethyl-18-isopropyl-5,5-dimethyl-2,4,5,6,9,10,11,12,15,16,18,19,22,23-tetradecahydro-8H,21H-9,13-epimino-1,29-etheno-15,26-methano-24,28-(metheno)pyrrolo[3,4-l][1,17]dioxa[4,23,26]triazacyclononacosine-8,14,17-trione”: the ring closure, isolated yield (amide bond, 13-membered ring, EDCI/HOBt/DIEA, DCM, 2 steps) amounted to 66%.

Turning to `COC(=O)[C@@H]1CCCN(C(=O)[C@@H]2Cc3cc(Br)cc(c3)CN(c3ccccc3)CCO[C@@H](C(C)C)C(=O)N2)N1`, under “from COC(=O)[C@@H]1CCCN(C(=O)[C@@H](N)Cc2cc(Br)cc(CN(CCO[C@H](C(=O)O)C(C)C)c3ccccc3)c2)N1, amide bond, 13-membered ring, EDCI/HOBt/DIEA, DCM, 107.0 mM, 25.0 °C, 2 steps”, the ring closure, isolated yield turned out to be 34%.

Regarding “tert-butyl 4-((9S,15S,18S,21 S)-3-(5-(4-cyclopropylpiperazin-1-yl)-2-((S)-1-methoxyethyl)pyridin-3-yl)-2-ethyl-18-isopropyl-5,5-dimethyl-8,14,17-trioxo-2,4,5,6,9,10,11,12,15,16,17,18,21,22-tetradecahydro-8H,14H,20H-9,13-epimino-1,29-etheno-15,26-methano-24,28-(metheno)pyrrolo[3,4-q][1,13,26]trioxa[4,7]diazacyclononacosin-21-yl)piperazine-1-carboxylate”, the ring closure, isolated yield (ether bond, 13-membered ring) was 40%.

In the case of `COC(=O)[C@@H]1CCCN(C(=O)[C@H]2NC(=O)[C@H](C(C)C)N3CCC[C@@H]3COc3ccccc3CN(C)[C@@H]2c2nc(Br)cs2)N1`, the ring closure, isolated yield (from COC(=O)[C@@H]1CCCN(C(=O)[C@@H](N)[C@@H](c2nc(Br)cs2)N(C)Cc2ccccc2OC[C@H]2CCCN2[C@H](C(=O)O)C(C)C)N1, amide bond, 13-membered ring, HATU/DIEA, DMF, 12.4 mM, 20.0 °C, 2 steps) was 55%.
